For experiment [1], the system named is Dentine. The experiment is described as follows: Induction of apparent modulus of elasticity in human molar dentine after 1 hr by bending method. The class given is functional, tissue-based.
The subject of experiment [2] is Hathewaya histolytica. As to the kind of experiment: Inhibition of Clostridium histolyticum collagenase-induced degradation of human molar dentin assessed as reduction in degradation after 24 hrs.

Activity calls are given as the source filed them. No cut-off for these calls is given here.

`Oc1cc(O)c2c(c1)O[C@@]1(c3ccc(O)c(O)c3)Oc3cc(O)c4c(c3[C@@H]2[C@H]1O)O[C@H](c1ccc(O)c(O)c1)[C@H](O)[C@H]4c1c(O)cc2c(c1O)[C@@H]1c3c(cc(O)c4c3O[C@H](c3ccc(O)c(O)c3)[C@@H](O)C4)O[C@](c3ccc(O)c(O)c3)(O2)[C@@H]1O`: the outcome in experiment [1] was Active. Besides, the inhibition entry in experiment [2] is “Active”.

On to `Oc1cc(O)c2c(c1)O[C@H](c1ccc(O)c(O)c1)[C@H](O)[C@H]2c1c(O)c2c(c3c1O[C@]1(c4ccc(O)c(O)c4)Oc4cc(O)cc(O)c4[C@H]3[C@H]1O)O[C@H](c1ccc(O)c(O)c1)[C@H](O)[C@H]2c1c(O)cc(O)c2c1O[C@H](c1ccc(O)c(O)c1)[C@H](O)C2`, for which, in experiment [1], the outcome was Active. Further, the inhibition result in experiment [2] was “Active”.

As to `Oc1cc(O)c2c(c1)O[C@@]1(c3ccc(O)c(O)c3)Oc3cc(O)c4c(c3[C@@H]2[C@H]1O)O[C@H](c1ccc(O)c(O)c1)[C@H](O)[C@H]4c1c(O)cc(O)c2c1O[C@H](c1ccc(O)c(O)c1)[C@H](O)C2`, in experiment [1], the outcome was Active. The inhibition result in experiment [2] was “Active”.
